Patent publication US5116863A, “Dibenz[b,e]oxepin derivative and pharmaceutical compositions thereof” (Kyowa Hakko Kogyo Co., Ltd., priority 1986, dated 1992)
Read-outs that look alike come from different tables or passages of the source.

What was measured:
[1] = system: homologous PCA (passive cutaneous anaphlaxis) of rats; experiment: Homologous PCA (passive cutaneous anaphylaxis) test of rats for 48 hours, oral (antiallergic activity); type: in vivo, Wistar male rats; details: for minimal effective dose / responders at 0.01 mg/kg / responders at 0.1 mg/kg / responders at 1 mg/kg / responders at 10 mg/kg / responders at 100 mg/kg / responders at 0.001 mg/kg: Rattus norvegicus; for minimal effective dose: read-out: MED (minimum effective dosage), PCA inhibition; for responders at 0.01 mg/kg / responders at 0.1 mg/kg / responders at 1 mg/kg / responders at 10 mg/kg / responders at 100 mg/kg / responders at 0.001 mg/kg: po; for responders at 0.01 mg/kg: dosage 0.01 mg/kg; for responders at 0.01 mg/kg / responders at 0.1 mg/kg / responders at 1 mg/kg / responders at 10 mg/kg / responders at 100 mg/kg / Number of positive zooids in one group of 3 zooids / responders at 0.001 mg/kg: positive = inhibition rate 50% or higher; for responders at 0.01 mg/kg / responders at 0.1 mg/kg / responders at 1 mg/kg / responders at 10 mg/kg / responders at 100 mg/kg: read-out: Number of positive zooids in one group of 3 zooids (converted); for responders at 10 mg/kg: dosage 10 mg/kg; for responders at 100 mg/kg: dosage 100 mg/kg; for responders at 0.001 mg/kg: dosage 0.001 mg/kg, read-out: Number of positive zooids in one group of 3 zooids
Procedure: Antiallergic activity was investigated by a homologous PCA (passive cutaneous anaphlaxis) of rats for 48 hours, where Wistar male rats having body weights of 180 to 220 g were used for sampling of antiserum and Wistar male rats having body weights of 120 to 140 g were used for the PCA test.
Anti-egg white albumin (EWA) rat serum was prepared according to Stotland and Share's method [Canad. J. Physiol. Pharmacol. 52, 1114 (1974)]. That is, 1 mg of EWA was mixed with 20 mg of aluminum hydroxide gel and 0.5 ml of mixed vaccine of pertussis, diphtheria and tetanus, and the mixture was subcutaneously administered in four portions into rat's footpad. After 14 days, blood was sampled from the carotid artery, and the serum was separated from the sampled blood, and preserved under freezing at -80° C. The potency of the antiserumin in the homologous PCA for 48 hours was 1:32.
Groups each consisting of 3 rats were used, and 0.05 ml of anti-EWA rat serum diluted with a physiological saline solution to 8 times as much was incutaneously injected each at two positions of depilated back to make the animals passively sensitised. After 47 hours, the compound of the present invention, or its solution (physiological saline solution or CMC solution) was orally administered. One hour thereafter, 0.5 ml/100 g of 1% Evan's blue physiological saline solution containing 2 mg of the antigen EWA was administered into the tail vein, and 30 minutes thereafter, the animals were sacrificed by exsanguination. Then, the skins were stripped and the amount of leaked pigment at the blue-dyed parts was measured according to the Katayama et al method [Microbiol. Immunol. 22, 89 (1978)]. That is, the blue-dyed parts were cut out by scissors, and placed in test tubes containing 1 ml of 1N KOH and incubated at 37° C. for 24 hours. Then, 9 ml of a mixture of 0.6N phosphoric acid and acetone (5:13) was added thereto, and the mixture was shaked and centrifuged at 2,500 rpm for 10 minutes. Absorbancy of the supernatant at […] was measured, and the amount of leaked pigment was quantitatively determined by the calibration curve prepared in advance. An average of measurements at the two position was made a value for one zooid, and inhibition rate for the individual zooid was calculated by the following formula: [formula]

dd, male mice = type: in vivo
Procedure: Groups each consisting of 3 dd, male mice having body weights of 20±1 g were used, and the compound of the present invention was administered orally (po: 300 mg/kg) or intraperitoneally (ip: 100 mg/kg).

[2] = minimum dosage with positive case in at least one of three rats
[3] = mice, mortality 7 days after administration

Compound	minimal effective dose [1, 2]	responders at 0.01 mg/kg [1]	responders at 0.1 mg/kg ([1]; dosage 0.1 mg/kg)	responders at 1 mg/kg ([1]; dosage 1 mg/kg)	responders at 10 mg/kg [1]	responders at 100 mg/kg [1]	Acute toxicity (MLD), ip (dd, male mice; [3])	Acute toxicity (MLD), po (dd, male mice; [3])	Number of positive zooids in one group of 3 zooids ([1]; dosage 0.1 mg/kg, listed as 31')	Number of positive zooids in one group of 3 zooids ([1]; dosage 1 mg/kg, listed as 31')	Acute toxicity (MLD), ip (dd, male mice; mouse, in vivo, 10080 min)	Acute toxicity (MLD), po (dd, male mice; mouse, in vivo, 10080 min)	responders at 0.001 mg/kg [1]	Number of positive zooids in one group of 3 zooids ([1]; dosage 0.1 mg/kg)	Number of positive zooids in one group of 3 zooids ([1]; dosage 1 mg/kg)	MED (minimum effective dosage), PCA inhibition [1, 2]
CN(C)CC/C=C1/c2ccccc2COc2ccc(C(=O)O)cc21 [Compound 3 (cis), Cis-11-(3-dimethylaminopropylidene)-6,11-dihydrodibenz[b,e]oxepin-2-carboxylic acid]	0.1 mg/kg	0%	100%	100%	100%	100%	> 100 mg/kg	> 300 mg/kg	–	–	–	–	–	–	–	–
CN1CCN(CC=C2c3ccccc3COc3ccc(CC(=O)O)cc32)CC1 [Compound 26, 11-[2-(4-Methylpiperazino)ethylidene]-6,11-dihydrodibenz[b,e]oxepin-2-acetic acid]	1 mg/kg	–	0%	66.7%	100%	100%	> 100 mg/kg	> 300 mg/kg	–	–	–	–	–	–	–	–
CN(C)CC/C=C1\c2ccccc2COc2ccc(CCO)cc21 [Compound 31, 11-(3-Dimethylaminopropylidene)-2-(2-hydroxyethyl)-6,11-dihydrodibenz[b,e]oxepin]	0.1 mg/kg	0%	–	–	100%	100%	–	–	1/3	3/3	> 100 mg/kg	> 300 mg/kg	–	–	–	–
O=C(O)c1ccc2c(c1)C(=CCCN1CCSCC1)c1ccccc1CO2 [Compound 58, 11-(3-Thiomorpholinopropylidene)-6,11-dihydrodibenz[b,e]oxepin-2-carboxylicacid]	1 mg/kg	–	0%	100%	100%	100%	> 100 mg/kg	> 300 mg/kg	–	–	–	–	–	–	–	–
CN(C)CCC=C1c2ccccc2COc2ccc(CCC(=O)O)cc21 [Compound 28, 3-[11-(3-Dimethylaminopropylidene)-6,11-dihydrodibenz[b,e]oxepin-2-yl]-propionic acid]	0.01 mg/kg	66.7%	66.7%	100%	100%	100%	> 100 mg/kg	> 300 mg/kg	–	–	–	–	0%	–	–	–
CN(C)CCCC=C1c2ccccc2COc2ccc(C(=O)O)cc21 [Compound 9, 11-(4-Dimethylaminobutylidene)-6,11-dihydrodibenz[b,e]oxepin-2-carboxylic acid]	1 mg/kg	0%	0%	66.7%	100%	100%	> 100 mg/kg	> 300 mg/kg	–	–	–	–	–	–	–	–
O=C(O)c1ccc2c(c1)C(=CCCN1CCCC1)c1ccccc1CO2 [Compound 7, 11-(3-Pyrrolidinopropylidene)-6,11-dihydrodibenz[b,e]oxepin-2-carboxylic acid]	1 mg/kg	–	0%	33.3%	66.7%	100%	> 100 mg/kg	> 300 mg/kg	–	–	–	–	–	–	–	–
O=C(O)c1ccc2c(c1)C(=CCCN1CCOCC1)c1ccccc1CO2 [Compound 56, 11-(3-Morpholinopropylidene)-6,11-dihydrodibenz[b,e]-oxepin-2-carboxylic acid]	0.1 mg/kg	0%	33.3%	100%	100%	100%	> 100 mg/kg	> 300 mg/kg	–	–	–	–	–	–	–	–
CN(C)CC/C=C1\c2ccccc2COc2ccc(CCC(=O)O)cc21 [Compound 28 (trans), Trans-3-[11-(3-dimethylaminopropylidene)-6,11-dihydrodibenz[b,e]oxepin-2-yl]-propionic acid]	0.01 mg/kg	33.3%	66.7%	66.7%	100%	100%	> 100 mg/kg	> 300 mg/kg	–	–	–	–	0%	–	–	–
O=C(O)c1ccc2c(c1)C(=CCN1CCOCC1)c1ccccc1CO2 [Compound 13, 11-(2-Morpholinoethylidene)-6,11-dihydrodibenz[b,e]oxepin-2-carboxylic acid]	10 mg/kg	–	0%	0%	33.3%	100%	> 100 mg/kg	> 300 mg/kg	–	–	–	–	–	–	–	–
CN(C)CC/C=C1/c2ccccc2COc2ccc(/C=C/C(=O)O)cc21 [Compound 60, Trans-3-[11-(3-dimethylaminopropylidene)-6,11-dihydrodibenz[b,e]oxepin-2-yl]-acrylic acid]	0.1 mg/kg	0%	33.3%	66.7%	100%	100%	> 100 mg/kg	> 300 mg/kg	–	–	–	–	–	–	–	–
CN(C)CC/C=C1\c2ccccc2COc2ccc(CCO)cc21 [Compound 31 (trans), Trans-11-(3-dimethylaminopropylidene)-2-(2-hydroxyethyl)-6,11-dihydrodibenz[b,e]oxepin]	–	–	–	–	–	–	> 100 mg/kg	> 300 mg/kg	–	–	–	–	–	3/3	2/3	0.1 mg/kg
CN1CCN(C/C=C2\c3ccccc3COc3ccc(C(=O)O)cc32)CC1 [Compound 11, 11-[2-(4-Methylpiperazino)ethylidene]-6,11-dihydrodibenz[b,e]oxepin-2-carboxylic acid]	10 mg/kg	–	0%	0%	33.3%	66.7%	–	–	–	–	> 100 mg/kg	> 300 mg/kg	–	–	–	–
CN(C)CC/C=C1\c2ccccc2COc2ccc(C(=O)O)cc21 [3']	0.1 mg/kg	0%	33.3%	33.3%	66.7%	100%	–	–	–	–	–	–	–	–	–	–
CN(C)CC/C=C1\c2ccccc2COc2ccc(CC(=O)O)cc21 [20']	0.1 mg/kg	0%	–	100%	–	–	–	–	–	–	–	–	–	–	–	–
O=C(O)c1ccc2c(c1)/C(=C\CN1CCSCC1)c1ccccc1CO2 [Compound 15, 11-(2-Thiomorpholinoethylidene)-6,11-dihydrodibenz[b,e]oxepin-2-carboxylic acid]	100 mg/kg	–	0%	0%	0%	100%	–	–	–	–	–	–	–	–	–	–
CN(C)CC/C=C1/c2ccccc2COc2ccc(CCCO)cc21 [Compound 33, Cis-11-(3-dimethylaminopropylidene)-2-(3-hydroxypropyl)-6,11-dihydrodibenz[b,e]oxepin; Trans-11-(3-dimethylaminopropylidene)-2-(3-hydroxypropyl)-6,11-dihydrodibenz[b,e]oxepin]	1 mg/kg	–	0%	33.3%	100%	100%	–	–	–	–	–	–	–	–	–	–
